Where two headings read alike, the source gives them in different places.
How the values were obtained:
[1] = Determination of drug solubility; assay type: physicochemical; conditions: for solubility: thermodynamic from solid
Experimental: For each test, approximately 5-10 mg was transferred to a 10 mL glass vial. Aqueous or organic solvent was added to each vial to achieve an overall concentration of 50 mg/mL. After vortexing aggressively for 2-3 minutes and sonicating in a bath sonicator for 5 minutes, undissolved drug was spun down at 1200 rpm for 5 minutes to generate a pellet. The supernatant was collected and filtered through a 0.2 μm nylon syringe filter into HPLC vials for drug content analysis. Drug concentration was determined by comparing against a standard calibration curve.

[2] = In vitro stability of latanoprost NCEs (RP-HPLC); assay type: physicochemical; conditions: PBS pH 7.0, 20% DMSO, 37° C., 14 days
Experimental: Latanoprost and latanoprost-PLA conjugates were solubilized with the addition of 20% (v/v) DMSO and subsequently suspended to a concentration of 1 mg/mL in PBS (pH 7.0).

[3] = In vitro stability of bifunctional conjugates (HPLC, 254 nm); assay type: physicochemical; conditions: PBS pH 7.0, 20% DMSO; one day
Experimental: Briefly, brinzolamide-PLA (n=4)-succinate-5-hydroxy-sunitinib (60-1) or dorzolamide-PLA (n=4)-succinate-5-hydroxy-sunitinib (58-5) was first dissolved in a solution of PBS (pH 7.0) with 20% DMSO (v/v) and incubated at 37° C. or 60° C. for 14 days.

[4] = target: T1, bovine erythrocyte carbonic anhydrase II (Bos taurus, UniProt P00921); assay: Carbonic anhydrase II inhibition, colorimetric 4-nitrophenyl acetate hydrolysis; assay type: biochemical
T1 construct: purified bovine erythrocyte carbonic anhydrase II; from tissue; host or cells: bovine erythrocytes
Experimental: The catalytic activity of carbonic anhydrase II was assessed by a colorimetric method, in which 4-nitrophenyl acetate is hydrolyzed to acetate and nitrophenolate. The nitrophenolate ionizes to generate a bright yellow anion that is readily detected by measuring its absorbance at 350-400 nm. […] Acetazolamide was added as a positive control and 100% DMSO was added as a negative control. The reaction was initiated with the addition of 20 μL of 4-nitrophenyl acetate (0.7 mM in ethanol).

[5] = DMSO, organic solvent or mixture, read-out: Solubility DMSO
[6] = water / aqueous solvent, read-out: Solubility Water

T1 sequence (P00921 whole entry): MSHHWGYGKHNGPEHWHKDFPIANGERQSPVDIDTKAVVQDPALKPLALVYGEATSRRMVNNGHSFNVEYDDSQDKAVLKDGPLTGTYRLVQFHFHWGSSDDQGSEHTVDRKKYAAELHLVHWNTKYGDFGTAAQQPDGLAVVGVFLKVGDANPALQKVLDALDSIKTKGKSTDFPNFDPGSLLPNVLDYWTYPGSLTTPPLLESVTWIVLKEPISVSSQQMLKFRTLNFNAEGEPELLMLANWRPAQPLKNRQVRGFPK

Row | solubility ([1]; DCM, organic solvent or mixture, read-out: Solubility DCM) | solubility [1, 5] | solubility ([1]; organic solvent (not named), organic solvent or mixture, organic solvent, read-out: organic solubility) | solubility [1, 6] | Solubility Water ([1]; water / aqueous solvent) | in vitro stability [2] | degradation kinetics [3] | carbonic anhydrase inhibitory activity [4] | IC50 ([4]; n = 2) | Structure (SMILES)
1 | > 50 mg/mL | > 50 mg/mL | > 50 mg/mL | < 1 mg/mL | very low aqueous solubility | good stability |  |  |  | CC(C)OC(=O)CCC/C=C\C[C@@H]1[C@@H](CC[C@@H](O)CCc2ccccc2)[C@H](O)C[C@@H]1O [Latanoprost, latanoprost, reference compound]
2 |  | > 50 mg/mL |  | < 1 mg/mL |  |  | rapidly decreasing after one day | lowest inhibitory activity | 222 ± 36.3 nM | CCN[C@H]1C[C@H](C)S(=O)(=O)c2sc(S(=O)(=O)NC(=O)[C@H](C)OC(=O)[C@H](C)OC(=O)[C@H](C)OC(=O)[C@H](C)OC(=O)CCC(=O)Oc3ccc4c(c3)/C(=C/c3[nH]c(C)c(C(=O)NCCN(CC)CC)c3C)C(=O)N4)cc21 [58-5, dorzolamide-PLA(n=4)-succinate-5-hydroxy-Sunitinib]
